According to US20220330549A1, “USE OF N-BENZYLBENZAMIDE-BASED COMPOUND AS HERBICIDE” (Northwest A&F University, priority 2020, published 2022):

Assays:
Assay type in all cases: in vivo
Gramineae = experiment: Post-emergence herbicidal activity test in a paddy field; parameters: key: level scale; higher level = more weed left vs blank control; details: 150 g a.i./ha (penoxsulam control 250 g(a.i.)/h)
Method in brief: (§1)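 Efficacy was visually estimated 15 and 30 days after spraying, grading weed coverage relative to an untreated neighbouring plot (level 2 = 0 to 2.5%, level 9 = 67.6 to 100%). Treatments were 150 g(a.i.)/ha from 10% emulsifiable concentrates applied at the 4-5 leaf rice stage, four repeats of 50 m^2 each.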

Cyperaceae = experiment: as above; parameters: key: level scale; higher level = more weed left vs blank control; details: 150 g a.i./ha (penoxsulam control 250 g(a.i.)/h)
Method in brief: as §1

Broadleaf weed = experiment: as above; parameters: key: level scale; higher level = more weed left vs blank control; details: 150 g a.i./ha (penoxsulam control 250 g(a.i.)/h)
Method in brief: as §1

Digitaria sanguinalis [1] = experiment: Herbicidal activity test for indoor post-emergence spraying on stems and leaves; parameters: key: grade level by weed remaining vs blank control, e.g. 5 = 10.1-15%; details: 150 g a.i./ha, visual inspection 21 days after treatment
Method in brief: (§2)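 Post-emergence stem and leaf spray in an indoor test following NY/T 1155.4-2006, with weeds sown and grown in a greenhouse. Effect scored visually 21 days after treatment as graded levels, each level set by the percentage of weed remaining relative to the blank control area.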

Barnyard grass [2] = experiment: as above; parameters: key: grade level by weed remaining vs blank control, e.g. 5 = 10.1-15%; details: 150 g a.i./ha, visual inspection 21 days after treatment
Method in brief: as §2

Piemarker [3] = experiment: as above; parameters: key: grade level by weed remaining vs blank control, e.g. 5 = 10.1-15%; details: 150 g a.i./ha, visual inspection 21 days after treatment
Method in brief: as §2

green bristlegrass [4] = experiment: as above; parameters: key: grade level by weed remaining vs blank control, e.g. 5 = 10.1-15%; details: 150 g a.i./ha, visual inspection 21 days after treatment
Method in brief: as §2

Humulus scandens [5] = experiment: as above; parameters: key: grade level by weed remaining vs blank control, e.g. 5 = 10.1-15%; details: 150 g a.i./ha, visual inspection 21 days after treatment
Method in brief: as §2

Amaranthus retroflexus [6] = experiment: as above; parameters: key: grade level by weed remaining vs blank control, e.g. 5 = 10.1-15%; details: 150 g a.i./ha, visual inspection 21 days after treatment
Method in brief: as §2

Digitaria sanguinalis [7] = experiment: Field test for weed control in a corn field; details: for Post-emergence weed control effect, Digitaria sanguinalis: 150 g a.i./ha, after treatment
Method in brief: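 Field trial in a corn field following GB/T 17980.42-2000. Test compounds were formulated as 10% emulsifiable concentrates, diluted in water and sprayed post-emergence at 150 g(a.i.)/ha when corn had 2 to 5 leaves, with 4 replicates on 20 m^2 plots. Control of Digitaria sanguinalis was scored on a 1-9 scale based on weed damage relative to the untreated blank area.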

Barnyard grass [8] = experiment: Field test for weed control in a corn field; details: for Post-emergence weed control effect, Barnyard grass: 150 g a.i./ha, 30 days after treatment
Method in brief: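 Corn-field efficacy trial following GB/T 17980.42-2000. Test compounds were formulated as 10% emulsifiable concentrates, diluted in water and sprayed post-emergence at 150 g(a.i.)/ha when corn had 2 to 5 leaves. Each treatment was replicated 4 times on 20 m^2 plots. Barnyard grass control was rated on a 1-9 damage scale.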

Portulaca oleracea = experiment: Field test for weed control in a corn field; details: for Post-emergence weed control effect, Portulaca oleracea: 150 g a.i./ha, after treatment
Method in brief: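 Field efficacy trial in corn following GB/T 17980.42-2000. Test compounds were prepared as 10% emulsifiable concentrates, diluted in water, and sprayed at 150 g(a.i.)/ha when corn had 2 to 5 leaves after sowing. Plots were 20 m^2 with 4 replicates per treatment. Herbicidal activity was scored on a 1-9 scale from weed damage symptoms and severity.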

Acalypha australis = experiment: Field test for weed control in a corn field; details: for Post-emergence weed control effect, Acalypha australis: 150 g a.i./ha, after treatment
Method in brief: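 Post-emergence field trial in a corn field following GB/T 17980.42-2000. Test compounds were formulated as 10% emulsifiable concentrates, diluted in water, and sprayed at 150 g(a.i.)/ha when corn had 2 to 5 leaves, with 4 replicates on 20 m^2 plots. Mesotrione 25% oil dispersion served as the control agent. Weed control was scored on a 1-9 scale.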

Chenopodium album = experiment: Field test for weed control in a corn field; details: for Post-emergence weed control effect, Chenopodium album: 150 g a.i./ha, after treatment
Method in brief: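 A corn-field efficacy trial following GB/T 17980.42-2000 tested post-emergence control of Chenopodium album. Test compounds formulated as 10% emulsifiable concentrates were diluted in water and sprayed at 150 g(a.i.)/ha when the corn had 2 leaves to 5 leaves, on 20 m^2 plots with 4 replicates. Herbicidal activity was rated on a 1-9 scale by damage symptoms and severity.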

green bristlegrass [9] = experiment: Field test for weed control in a corn field; details: for Post-emergence weed control effect, Green bristlegrass: 150 g a.i./ha, after treatment
Method in brief: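 Post-emergence weed control was tested in a corn field following GB/T 17980.42-2000. When the corn had 2 leaves to 5 leaves after sowing, 10% emulsifiable concentrates diluted in water were sprayed at 150 g(a.i.)/ha on 20 m^2 plots, four replicates per treatment. Effects on green bristlegrass were scored on a 1-9 damage scale relative to the blank control area.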

Convolvulus arvensis = experiment: Field test for weed control in a corn field; details: for Post-emergence weed control effect, Convolvulus arvensis: 150 g a.i./ha, after treatment
Method in brief: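 Field trial of weed control against Convolvulus arvensis in corn, run following GB/T 17980.42-2000. Test agents were formulated as 10% emulsifiable concentrates and sprayed in water at 150 g(a.i.)/ha when corn plants had 2 to 5 leaves. Each treatment was replicated 4 times on 20 m^2 plots, and 25% mesotrione oil dispersion served as the control agent.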

Solanum nigrum = experiment: Field test for weed control in a corn field; details: for Post-emergence weed control effect, Solanum nigrum: 150 g a.i./ha, 30 days after treatment
Method in brief: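 Post-emergence weed control was tested in a corn field following GB/T 17980.42-2000. Compounds were made into 10% emulsifiable concentrates, diluted in water and sprayed at 150 g(a.i.)/ha when corn had 2 to 5 leaves after sowing, in 20 m^2 plots with 4 replicates. Effects on Solanum nigrum were graded on a 1-9 scale relative to the blank control area.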

nutgrass flatsedge = experiment: Field test for weed control in a corn field; details: for Post-emergence weed control effect, Nutgrass flatsedge: 150 g a.i./ha, after treatment
Method in brief: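 A corn field efficacy trial following GB/T 17980.42-2000 assessed post-emergence control of nutgrass flatsedge. Test compounds were formulated as 10% emulsifiable concentrates, diluted in water, and sprayed at 150 g(a.i.)/ha when the corn had 2 to 5 leaves. Each treatment had 4 replicates on 20 m^2 plots. Herbicidal activity was graded on a 1-9 scale by damage symptoms and severity.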

Amaranthus retroflexus [10] = experiment: Field test for weed control in a corn field; details: for Post-emergence weed control effect, Amaranthus retroflexus: 150 g a.i./ha, 30 days after treatment
Method in brief: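 Field efficacy trial in a corn field following GB/T 17980.42-2000. Test compounds were formulated as 10% emulsifiable concentrates, diluted in water and sprayed post-emergence when corn had 2 to 5 leaves. Each treatment covered 20 m^2 with 4 replicates. A 25% mesotrione oil dispersion served as control. Damage to Amaranthus retroflexus was rated on a 1-9 scale against untreated blank plots.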

goosegrass = experiment: Field test for weed control in a corn field; details: for Post-emergence weed control effect, Goose grass: 150 g a.i./ha, after treatment
Method in brief: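 Weed control efficacy against goosegrass was tested in a corn field following GB/T 17980.42-2000. Compounds formulated as 10% emulsifiable concentrates were diluted in water and sprayed post-emergence at 150 g(a.i.)/ha when corn had 2 to 5 leaves, with 4 replicates of 20 m^2 plots. Herbicidal activity was rated on a 1-9 scale by damage symptoms and severity.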

Humulus scandens [11] = experiment: Herbicidal activity test for indoor pre-emergence soil treatment; details: 150 g a.i./ha, visual inspection 21 days after treatment
Method in brief: (§3)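 Pre-emergence test following NY/T 1155.3-2006: weed seeds were sown in moistened neutral sandy loam (≤2% organic matter) and covered with 0.5–2.0 cm of soil. After 24 h, the soil was sprayed with a 10% EC diluted in water at 150 g(a.i.)/ha. Damage was scored visually on a 1–9 scale at 21 days.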

Digitaria sanguinalis [12] = experiment: as above; parameters: key: 1-9 levels; higher = more weed remaining vs blank control; details: 150 g a.i./ha, visual inspection 21 days after treatment
Method in brief: as §3

Amaranthus retroflexus [13] = experiment: as above; parameters: key: 1-9 levels; higher = more weed remaining vs blank control; details: 150 g a.i./ha, visual inspection 21 days after treatment
Method in brief: as §3

Barnyard grass [14] = experiment: as above; parameters: key: level 1-9; higher = more weed remaining vs blank control; details: 150 g a.i./ha, visual inspection 21 days after treatment
Method in brief: as §3

Piemarker [15] = experiment: as above; parameters: key: level 1-9; higher = more weed remaining vs blank control; details: 150 g a.i./ha, visual inspection 21 days after treatment
Method in brief: as §3

green bristlegrass [16] = experiment: as above; parameters: key: level 1-9; higher = more weed remaining vs blank control; details: 150 g a.i./ha, visual inspection 21 days after treatment
Method in brief: as §3

[17] = 150 g(a.i.)/ha, 21 days after treatments

SMILES	Herbicidal activity 15 days after treatment Gramineae (Gramineae)	Herbicidal activity 30 days after treatment Gramineae (Gramineae)	Herbicidal activity 15 days after treatment Cyperaceae (Cyperaceae)	Herbicidal activity 30 days after treatment Cyperaceae (Cyperaceae)	Herbicidal activity 15 days after treatment Broadleaf weed (Broadleaf weed)	Herbicidal activity 30 days after treatment Broadleaf weed (Broadleaf weed)	Herbicidal Activity Digitaria sanguinalis (Digitaria sanguinalis [1])	Herbicidal Activity Barnyard grass (Barnyard grass [2])	Herbicidal Activity Piemarker (Piemarker [3])	Herbicidal Activity Green bristlegrass (green bristlegrass [4])	Herbicidal Activity Humulus scandens (Humulus scandens [5])	Herbicidal Activity Amaranthus retroflexus (Amaranthus retroflexus [6])	Post-emergence weed control effect, Digitaria sanguinalis (Digitaria sanguinalis [7])	Post-emergence weed control effect, Barnyard grass (Barnyard grass [8])	Post-emergence weed control effect, Portulaca oleracea (Portulaca oleracea)	Post-emergence weed control effect, Acalypha australis (Acalypha australis)	Post-emergence weed control effect, Chenopodium album (Chenopodium album)	Post-emergence weed control effect, Green bristlegrass (green bristlegrass [9])	Post-emergence weed control effect, Convolvulus arvensis (Convolvulus arvensis)	Post-emergence weed control effect, Solanum nigrum (Solanum nigrum)	also measured
Cc1cccc(C(=O)NCc2cc(Cl)cc(Cl)c2)c1 [Compound B08]	2 (equivalent to 0 to 2.5% of the weed in the blank control area)	2 (equivalent to 0 to 2.5% of the weed in the blank control area)	1	1	2 (equivalent to 0 to 2.5% of the weed in the blank control area)	1	1	1	1	2 (equivalent to 0 to 2.5% of the weed in the blank control area)	1	1	1	1	1	1	1	1	1	1	controlling effect on Digitaria sanguinalis (Digitaria sanguinalis [7]; [17]): 1; controlling effect on barnyard grass (Barnyard grass [8]; [17]): 1; controlling effect on Portulaca oleracea (Portulaca oleracea; [17]): 1; controlling effect on Acalypha australis (Acalypha australis; [17]): 1; controlling effect on Chenopodium album (Chenopodium album; [17]): 1; controlling effect on green bristlegrass (green bristlegrass [9]; [17]): 1; controlling effect on Convolvulus arvensis (Convolvulus arvensis; [17]): 1; controlling effect on Solanum nigrum (Solanum nigrum; [17]): 1; Post-emergence weed control effect, Nutgrass flatsedge (nutgrass flatsedge): 1; controlling effect on nutgrass flatsedge (nutgrass flatsedge; [17]): 1; Post-emergence weed control effect, Amaranthus retroflexus (Amaranthus retroflexus [10]): 1; controlling effect on Amaranthus retroflexus (Amaranthus retroflexus [10]; [17]): 1; Post-emergence weed control effect, Goose grass (goosegrass): 1; controlling effect on goosegrass (goosegrass; [17]): 1; Herbicidal Activity Humulus scandens (Humulus scandens [11]): 2 (equivalent to 0 to 2.5% of the weed in the blank control area); Herbicidal Activity Digitaria sanguinalis (Digitaria sanguinalis [12]): 2 (equivalent to 0 to 2.5% of the weed in the blank control area); Herbicidal Activity Amaranthus retroflexus (Amaranthus retroflexus [13]): 1; Herbicidal Activity Barnyard grass (Barnyard grass [14]): 2 (equivalent to 0 to 2.5% of the weed in the blank control area); Herbicidal Activity Piemarker (Piemarker [15]): 2 (equivalent to 0 to 2.5% of the weed in the blank control area); Herbicidal Activity Green bristlegrass (green bristlegrass [16]): 2 (equivalent to 0 to 2.5% of the weed in the blank control area)
Cc1cccc(C(=O)NCc2cccc(F)c2)c1 [Compound B01]	2 (equivalent to 0 to 2.5% of the weed in the blank control area)	2 (equivalent to 0 to 2.5% of the weed in the blank control area)	2 (equivalent to 0 to 2.5% of the weed in the blank control area)	2 (equivalent to 0 to 2.5% of the weed in the blank control area)	1	2 (equivalent to 0 to 2.5% of the weed in the blank control area)	1	2 (equivalent to 0 to 2.5% of the weed in the blank control area)	1	1	1	1	1	1	1	2 (equivalent to 0 to 2.5% of the weed in the blank control area)	1	1	2 (equivalent to 0 to 2.5% of the weed in the blank control area)	2 (equivalent to 0 to 2.5% of the weed in the blank control area)	Post-emergence weed control effect, Nutgrass flatsedge (nutgrass flatsedge): 2 (equivalent to 0 to 2.5% of the weed in the blank control area); Post-emergence weed control effect, Amaranthus retroflexus (Amaranthus retroflexus [10]): 1; Post-emergence weed control effect, Goose grass (goosegrass): 1; Herbicidal Activity Humulus scandens (Humulus scandens [11]): 2 (equivalent to 0 to 2.5% of the weed in the blank control area); Herbicidal Activity Digitaria sanguinalis (Digitaria sanguinalis [12]): 1; Herbicidal Activity Amaranthus retroflexus (Amaranthus retroflexus [13]): 1; Herbicidal Activity Barnyard grass (Barnyard grass [14]): 2 (equivalent to 0 to 2.5% of the weed in the blank control area); Herbicidal Activity Piemarker (Piemarker [15]): 2 (equivalent to 0 to 2.5% of the weed in the blank control area); Herbicidal Activity Green bristlegrass (green bristlegrass [16]): 1
